Data on two molecules can be found in patent publication US7989629B2, “3-(4-{ [4-(4-{ [3-(3, 3-dimethyl-1-piperidinyl) propyl] oxy} phenyl)-1-piperidinyl] carbonyl}-1-naphthalenyl) propanoic or propenoic acid as H1 and H3 receptor antagonists for the treatment of inflammatory and/or allergic disorders” (Glaxo Group Limited, priority 2005, dated 2011).

The target in one series is histamine H3 receptor (Homo sapiens, UniProt Q9Y5N1). The series is described as follows: Histamine H3 functional antagonist assay (GTPγS). The class given is biochemical. The following applies: functional antagonism, histamine at EC80; read-out: average pKi (pKb) at H3 (converted). From the text: 2. H3 Receptor Cell Line Generation, Membrane Preparation and Functional GTPγS Assay Protocols
Chain of histamine H3 receptor (Q9Y5N1 whole entry, species assumed): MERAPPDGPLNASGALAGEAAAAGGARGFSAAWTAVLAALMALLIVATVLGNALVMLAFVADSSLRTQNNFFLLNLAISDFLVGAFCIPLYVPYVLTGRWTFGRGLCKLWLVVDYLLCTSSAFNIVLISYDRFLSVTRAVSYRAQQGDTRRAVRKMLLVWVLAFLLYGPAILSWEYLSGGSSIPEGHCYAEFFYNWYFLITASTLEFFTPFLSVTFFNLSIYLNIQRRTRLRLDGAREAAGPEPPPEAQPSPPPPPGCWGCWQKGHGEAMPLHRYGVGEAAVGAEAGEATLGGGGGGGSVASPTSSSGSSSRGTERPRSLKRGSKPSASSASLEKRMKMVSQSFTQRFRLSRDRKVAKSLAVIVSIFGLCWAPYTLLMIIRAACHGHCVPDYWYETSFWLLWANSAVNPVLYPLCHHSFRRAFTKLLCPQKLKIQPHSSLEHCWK
Generation of Histamine H3 Cell Line
The histamine H3 cDNA is isolated from its holding vector, pcDNA3.1 TOPO (InVitrogen), by restriction digestion of plasmid DNA with the enzymes BamH1 and Not-1 and ligated into the inducible expression vector pGene (InVitrogen) digested with the same enzymes. The GeneSwitch™ system (a system wherein transgene expression is switched off in the absence of an inducer and switched on in the presence of an inducer) is performed as described in U.S. Pat. Nos. 5,364,791; 5,874,534; and 5,935,934. […]
10-14 days post selection, 10 nM Mifepristone (InVitrogen) is added to the culture medium to induce the expression of the receptor. […] Receptor bound antibody is detected by incubation of the cells for 60 min on ice with a goat anti rabbit antibody, conjugated with Alexa 488 fluorescence marker (Molecular Probes). Following two further washes with Sorting Medium, cells are filtered through a 50 μm Filcon™ (BD Biosciences) and are then analysed on a FACS Vantage SE Flow Cytometer fitted with an Automatic Cell Deposition Unit, Control cells are non-induced cells treated in a similar manner. […]

The target in series [1] is T1, human H1 receptor (Homo sapiens, UniProt P35367). In words: Histamine H1 functional antagonist assay (FLIPR): determination of functional pKi values. Conditions: functional antagonism, CHO cells, histamine at EC80; read-out: average pKi (pKb) at H1 (converted). The class given is cell-based. From the text: H1 Receptor Cell Line Generation and FLIPR Assay Protocol
T1 sequence (P35367 whole entry): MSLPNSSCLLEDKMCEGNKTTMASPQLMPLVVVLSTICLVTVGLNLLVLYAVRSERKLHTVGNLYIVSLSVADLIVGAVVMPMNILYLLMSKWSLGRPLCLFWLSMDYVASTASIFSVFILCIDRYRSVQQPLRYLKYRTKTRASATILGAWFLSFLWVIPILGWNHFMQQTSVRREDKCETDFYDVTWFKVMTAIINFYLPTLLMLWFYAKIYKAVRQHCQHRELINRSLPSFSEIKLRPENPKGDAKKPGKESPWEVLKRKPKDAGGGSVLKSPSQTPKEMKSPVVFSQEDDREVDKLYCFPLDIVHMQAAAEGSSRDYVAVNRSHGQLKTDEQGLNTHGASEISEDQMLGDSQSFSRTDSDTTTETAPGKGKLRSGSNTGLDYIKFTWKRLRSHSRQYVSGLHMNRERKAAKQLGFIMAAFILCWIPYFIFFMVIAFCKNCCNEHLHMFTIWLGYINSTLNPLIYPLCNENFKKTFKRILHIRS
1. Generation of Histamine H1 Cell Line
(§1) The human H1 receptor may be cloned using known procedures described in the literature [Biochem. Biophys. Res. Commun., 201(2):894 (1994)]. Chinese hamster ovary (CHO) cells stably expressing the human H1 receptor may be generated according to known procedures described in the literature [Br. J. Pharmacol., 117(6):1071 (1996)].
Histamine H1 Functional Antagonist Assay: Determination of Functional pKi Values […]
10 μl of test compound, diluted to the required concentration in Tyrodes buffer+probenecid (or 10 μl Tyrodes buffer+probenecid as a control) is added to each well and the plate incubated for 30 min at 37° C., 5% CO2. The plates are then placed into a FLIPR™ (Molecular Devices, UK) to monitor cell fluorescence (λex=488 nm, λEM=540 nm) in the manner described in Sullivan et al., (In: Lambert D G (ed.), Calcium Signaling Protocols, New Jersey: Humana Press, 1999, 125-136) before and after the addition of 10 μl histamine at a concentration that results in the final assay concentration of histamine being EC80.
Functional antagonism is indicated by a suppression of histamine induced increase in fluorescence, as measured by the FLIPR™ system (Molecular Devices). By means of concentration effect curves, functional affinities are determined using standard pharmacological mathematical analysis.

Another series in a line: Rat pharmacokinetics. The class given is in vivo. The method, then: Compounds are dosed to male CD Sprague Dawley rats by single intravenous or oral administration at a nominal dose level of 1 mg/kg and 3 mg/kg respectively. Compounds are formulated in 5% DMSO/45% PEG200/50% water. An intravenous profile is obtained by taking serial or terminal blood samples at 0.083, 0.25, 0.5, 1, 2, 4, and 7 hours post dose (for some studies 12 and 24 hour samples may be taken). An oral profile is obtained by taking serial or terminal blood samples at 0.25, 0.5, 1, 2, 4, 7 and 12 hours post dose (for some studies 24 and 30 hour samples may be taken). Blood samples are taken directly into heparinised tubes. Blood samples are prepared by protein precipitation and subjected to quantitative analysis by LC-MS/MS using compound-specific mass transitions. Drug concentration-time profiles are generated and non-compartmental PK analysis used to generate estimates of half-life, clearance, volume of distribution and oral bioavailability.

Another series in a line: Dog pharmacokinetics. Format: in vivo. The following applies: combined data for Example 1 and 3; for half-life / bioavailability: male, Beagle, whole blood; for bioavailability: po, 2 mg/kg. As for the experimental part: Compounds are dosed to male Beagle dogs by single intravenous or oral administration at a nominal dose level of 1 mg/kg and 2 mg/kg respectively. The study is carried out according to a crossover design such that the same dog is used for both dosing events and the dosing events occurred 1 week apart. Compounds are formulated in 5% DMSO/45% Peg200/50% water. An intravenous profile is obtained by taking serial blood samples at 0.083, 0.25, 0.5, 0.75, 1, 2, 4, 6 and 12 hr post dose (for some studies 24 hour samples may be taken). An oral profile is obtained by taking serial blood samples at 0.25, 0.5, 0.75, 1, 2, 4, 6, 12 and 24 hr post dose. Blood samples are taken directly into heparinised tubes. Blood samples are prepared by protein precipitation and subjected to quantitative analysis by LC-MS/MS using compound-specific mass transitions. Drug concentration-time profiles are generated and non-compartmental PK analysis used to generate estimates of half-life, clearance, volume of distribution and oral bioavailability.

Series [2] has as its target T1, human H1 receptor. In words: Histamine H1 functional antagonist assay (FLIPR): determination of antagonist pA2. The class given is cell-based. The method, then: as §1
Histamine H1 Functional Antagonist Assay: Determination of Antagonist pA2
The histamine H1 receptor expressing CHO cells is seeded into non-coated black-walled clear bottom 96-well tissue culture plates as described above. […]
The plates are then placed into a FLIPR™ (Molecular Devices, UK) to monitor cell fluorescence (λex=488 nm, λEM=540 nm) in the manner described in Sullivan et al., (In: Lambert D G (ed.), Calcium Signaling Protocols, New Jersey: Humana Press, 1999, 125-136) before and after the addition of 50 μl histamine over a concentration range of 1 mM-0.1 nM. […] The antagonist pA2 is calculated using the following standard equation: pA2=log(DR−1)−log [B] where DR=dose ratio, defined as EC50antagonist-treated/EC50control and [B]=concentration of antagonist.

The next series relates to histamine-induced wheals. In words: In vivo anti-inflammatory wheal and flare model. More on the design: species or system guinea pig. The method, then: In Vivo Anti-Inflammatory Wheal and Flare Model
Male Dunkin-Hartley guinea pigs 500 g-1 kg are dosed with test compound or vehicle using a 1 ml syringe into the oral cavity (0.5 ml/kg p.o.), or via a marginal ear vein (0.33 ml/kg i.v.). Compounds are formulated in 5% DMSO/45% PEG200/50% water.
Either 2 hr after oral or 15 min after intravenous compound administration, guinea pigs are anaesthetised with isoflurane (5%, […] O2), and receive Evans blue solution (2% in saline), 0.33 ml/kg i.v. via a marginal ear vein.
Immediately after Evans blue administration, and whilst still under isoflurane, animals are placed in a prone position, and an area of the back shaved. […]
Following histamine challenge, the animals are allowed to recover from anaesthesia and, 30 minutes later are euthanased with an i.p. overdose of pentobarbitone. The dorsal skin is carefully removed and wheal areas (stained blue) measured from the inner skin surface by taking two perpendicular diameters using engineer's calipers, and calculating the average radius. This value is used to calculate the area of each wheal, and the mean value of all histamine-induced wheals is subsequently calculated for each animal. […]
Dose-response curves are constructed for each test compound and ID50 values may be determined for each route of administration (oral and intravenous).

The structures appear in SMILES notation.

Usually half-life stands for the time in which the quantity being followed falls by half. As a reminder, the bioavailability is dose-corrected exposure relative to a reference, in per cent. As for `CC1(C)CCCN(CCCOc2ccc(C3CCN(C(=O)c4ccc(CCC(=O)O)c5ccccc45)CC3)cc2)C1` [Example 1, 3-(4-{[4-(4-{[3-(3,3-dimethyl-1-piperidinyl)propyl]oxy}phenyl)-1-piperidinyl]carbonyl}-1-naphthalenyl)propanoic acid, formic acid (1:1)], the Ki on histamine H3 receptor is about 0.0398 µM; at human H1 receptor [1] it was about 0.0158 µM. For the same molecule, the plasma clearance result in the series “Rat pharmacokinetics” and in “Dog pharmacokinetics” was “low” in each case. In addition, the half-life is 4 to 5 h in the series “Rat pharmacokinetics” (male, CD Sprague Dawley, whole blood, 1 mg/kg, IV route) and about 3 h in the series “Dog pharmacokinetics”. Moreover, the bioavailability was about 59% in the series “Rat pharmacokinetics” (male, CD Sprague Dawley, whole blood, po, 3 mg/kg) and about 60% in the series “Dog pharmacokinetics”.
As a reminder, the Kb is the equilibrium dissociation constant of an antagonist, usually derived from a functional assay. Take `CC1(C)CCCN(CCCOc2ccc(C3CCN(C(=O)c4ccc(CCC(=O)O)c5ccccc45)CC3)cc2)C1.Cl` [Example 3, 3-(4-{[4-(4-{[3-(3,3-dimethyl-1-piperidinyl)propyl]oxy}phenyl)-1-piperidinyl]carbonyl}-1-naphthalenyl)propanoic acid, hydrochloride salt]: the Ki on histamine H3 receptor was about 0.0501 µM. Further, on human H1 receptor [1], the Ki was about 0.0126 µM. In addition, the Kb on human H1 receptor [2] is about 0.00794 µM. For the same molecule, the “ID50 in the wheal and flare model” value in the series with histamine-induced wheals (i.v.) was “about 0.6 mg/Kg”. Further, the “ID50 in the wheal and flare model” value in the series on histamine-induced wheals (oral) is on record as “about 2.8 mg/Kg”. In addition, in “Dog pharmacokinetics”, the plasma clearance result is given as “low”, the half-life is about 3 h and the bioavailability is about 60%.
